This note sets out measurements from patent publication US20230044787A1, “TRICYCLE DIHYDROIMIDAZOPYRIMIDONE DERIVATIVE, PREPARATION METHOD THEREOF, PHARMACEUTICAL COMPOSITION AND USE THEREOF” (priority 2019, published 2023).

This assay has as its target T1, Lp-PLA2 (Homo sapiens, UniProt Q13093).
T1 construct: aliquoted and thawed 40 μL of pooled human plasma was previously added; from tissue; host or cells: pooled human plasma
T1 sequence (Q13093 22-441): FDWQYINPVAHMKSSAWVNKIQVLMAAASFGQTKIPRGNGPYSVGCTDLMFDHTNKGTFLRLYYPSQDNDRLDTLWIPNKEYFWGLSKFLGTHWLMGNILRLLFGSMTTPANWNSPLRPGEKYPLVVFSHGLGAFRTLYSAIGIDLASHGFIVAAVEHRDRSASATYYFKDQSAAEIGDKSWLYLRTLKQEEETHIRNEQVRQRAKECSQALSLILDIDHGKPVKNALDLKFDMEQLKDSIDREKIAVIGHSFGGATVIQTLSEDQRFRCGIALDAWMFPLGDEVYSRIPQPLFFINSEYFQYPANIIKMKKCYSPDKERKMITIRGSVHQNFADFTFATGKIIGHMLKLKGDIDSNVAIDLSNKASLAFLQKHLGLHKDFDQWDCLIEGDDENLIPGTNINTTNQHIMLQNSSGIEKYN
Description: Lipoprotein-associated phospholipase A2 (Lp-PLA2) human plasma assay (Thio-PAF assay). It is filed as biochemical. The note with it: Lp-PLA2 human plasma assay (Thio-PAF), pooled human plasma, 30-min pre-incubation at room temperature. On the procedure: Lipoprotein-Associated Phospholipase A2 (Lp-PLA2) Human Plasma Assay
The amount of sulfhydryl groups is continuously determined by the reaction with CPM (7-diethylamino-3-(4′-maleimidophenyl)-4-methylcoumarin), and the CPM is a maleimide of which fluorescence increases after Michael addition of sulfhydryl group. This assay can detect Lp-PLA2 activity in human plasma, as determined by specific inhibition of Lp-PLA2 inhibitors.
Thio-PAF assay was performed as quenched 75 μL assay. Compound source plate was prepared for each compound by preparing 1:3 (by volume) serial dilutions in pure DMSO in a 96-well microplate. The compound on the source plate was diluted 20-fold by transferring 3 μL of the compound from the compound source plate into a 96-well microplate pre-added with 57 μL of assay buffer by Rainin multichannel pipette. The assay buffer described above consisted of 50 mM HEPES, pH 7.4, 150 mM NaCl, 1 mM CHAPS. 1 μL of the 20-fold diluted compound was transferred by Rainin multichannel pipette into a 96-well Greiner 655076 (black) microplate to which aliquoted and thawed 40 μL of pooled human plasma was previously added. The plate was shaken for 20 seconds on a microplate shaker to mix well. After a 30-min pre-incubation at room temperature, 10 μL of substrate solution was added to the 96-well Greiner 655076 (black) microplate by Rainin multichannel pipette, in which the substrate solution contained 2.5 mM 2-thio-PAF [from ethanol stock], 32 μM CPM [from DMSO stock], and 3.2 mM NEM (N-ethylmaleimide) [freshly prepared in DMSO per experiment] in assay buffer consisting of 50 mM HEPES, pH 7.4; 150 mM NaCl; 1 mM CHAPS. After 2 min, the reaction was quenched with […] of 5% trifluoroacetic acid (TFA) in water. The plate was centrifuged at 2000 rpm for 1 minute. The plate was read at ex:380/em:485 using a Biotek Synergy H1 (H1MF) microplate reader. IC50 data, curves and QC analysis were performed using GraphPad Prism 6.0 and Excel.
Broadly, the IC50 is the concentration at which inhibition is half-maximal. As for `O=c1nc(OCc2cc(F)c(Oc3ccnc(C(F)(F)F)c3)c(F)c2)cc2n1C[C@@]13CO[C@@H](CN21)C3` [Example 26, (3R,11aS)-7-((3,5-difluoro-4-((2-(trifluoromethyl)pyridin-4-yl)oxy)benzyl)oxy)-3,4-dihydro-1H,9H,11H-3,11a-methanopyrimido[6′,1′:2,3] imidazo[5,1-c][1,4]oxazin-9-one], the IC50 stood at 5.5 nM.

On to `O=c1nc(OCc2cc(F)c(Oc3ccc(Cl)c(C(F)(F)F)c3)c(F)c2)cc2n1C[C@@]13CO[C@@H](CN21)C3` [Example 27, (3R,11aS)-7-((4-(4-chloro-3-(trifluoromethyl)phenoxy)-3,5-difluorobenzyl)oxy)-3,4-dihydro-1H,9H,11H-3,11a-methanopyrimido[6′,1′:2,3] imidazo[5,1-c][1,4]oxazin-9-one], for which the IC50 came to 2.5 nM.

On to `O=c1nc(OCc2cc(F)c(Oc3ccnc(Cl)c3)c(F)c2)cc2n1C[C@@]13CO[C@@H](CN21)C3` [Example 28, (3R,11aS)-7-((4-((2-chloropyridin-4-yl)oxy)-3,5-difluorobenzyl)oxy)-3,4-dihydro-1H,9H,11H-3,11a-methanopyrimido[6′,1′:2,3] imidazo[5,1-c][1,4]oxazin-9-one], for which the IC50 turned out to be 7.3 nM.

As for `O=c1nc(OCc2cc(F)c(Oc3cncc(C(F)(F)F)c3)c(F)c2)cc2n1C[C@@]13CO[C@@H](CN21)C3` [Example 29, (3R,11aS)-7-((3,5-difluoro-4-((5-(trifluoromethyl)pyridin-3-yl)oxy)benzyl)oxy)-3,4-dihydro-1H,9H,11H-3,11a-methanopyrimido[6′,1′:2,3] imidazo[5,1-c][1,4]oxazin-9-one], the IC50 was determined as 3.4 nM.

Consider `O=c1nc(OCc2cc(F)c(Oc3ccc(C(F)(F)F)nc3)c(F)c2)cc2n1C[C@@]13CO[C@@H](CN21)C3` [Example 30, (3R,11aS)-7-((3,5-difluoro-4-((6-(trifluoromethyl)pyridin-3-yl)oxy)benzyl)oxy)-3,4-dihydro-1H,9H,11H-3,11a-methanopyrimido[6′,1′:2,3] imidazo[5,1-c][1,4]oxazin-9-one], for which the IC50 came out at 6.8 nM.

Consider `N#Cc1cc(Oc2ccc(COc3cc4n(c(=O)n3)C[C@@]35CO[C@@H](CN43)C5)cc2F)cc(C(F)(F)F)c1` [Example 31], for which the concentration for half-maximal inhibition (IC50) came out at 7.1 nM.

In the case of `O=c1nc(OCc2ccc(Oc3ccc(F)c(C(F)(F)F)c3)nc2)cc2n1C[C@@]13CO[C@@H](CN21)C3` [Example 32, (3R,11aS)-7-((6-(4-fluoro-3-(trifluoromethyl)phenoxy)pyridin-3-yl)methoxy)-3,4-dihydro-1H,9H,11H-3,11a-methanopyrimido[6′,1′:2,3] imidazo[5,1-c][1,4]oxazin-9-one], the half-inhibitory concentration (IC50) came to 164 nM.

In the case of `N#Cc1cc(COc2cc3n(c(=O)n2)C[C@@]24CO[C@@H](CN32)C4)ccc1Oc1cccc(C(F)(F)F)c1` [Example 33], the IC50 is 6 nM.

Regarding `N#Cc1cc(COc2cc3n(c(=O)n2)C[C@@]24CO[C@@H](CN32)C4)ccc1Oc1ccc(C(F)(F)F)cc1` [Example 34, 5-((((3R,11aS)-9-oxo-3,4-dihydro-1H,9H,11H-3,11a-methanopyrimido[6′,1′:2,3]imidazo[5,1-c][1,4]oxazin-7-yl)oxy)methyl)-2-(4-(trifluoromethyl)phenoxy) benzonitrile], the IC50 was found to be 3.6 nM.

As for `O=c1nc(OCc2cc(F)c(F)c(F)c2)cc2n1C[C@@]13CO[C@@H](CN21)C3` [Example 35, (3R,11aS)-7-((3,4,5-trifluorobenzyl)oxy)-3,4-dihydro-1H,9H,11H-3,11a-methanopyrimido[6′,1′:2,3] imidazo[5,1-c][1,4]oxazin-9-one], the half-inhibitory concentration (IC50) is 38.8 nM.

With `O=c1nc(OCc2cc(F)c(Oc3ccnc(C(F)(F)F)c3)c(F)c2)cc2n1CC13CC(CN21)C3` [Example 36, 3-((3,5-difluoro-4-((2-(trifluoromethyl)pyridin-4-yl)oxy)benzyl)oxy)-7,8-dihydro-1H,6H,9H-7,8a-methanopyrrolo[1′,2′:3,4] imidazo[1,2-c]pyrimidin-1-one], the IC50 came out at 9.6 nM.
